pEC50: −log10 of the molar value.
Experiments:
[1] = test system: TaOR2 + TaORco; experiment: two-electrode voltage clamp, Xenopus oocytes; assay type: cell-based, Toxorhynchites amboinensis; details: agonist; co-expressed with TaORco; -80 mV; 10^-10 to 10^-4 M
[2] = test system: TaOR10 + TaORco; experiment: two-electrode voltage clamp, Xenopus oocytes; assay type: cell-based, Toxorhynchites amboinensis; details: agonist; co-expressed with TaORco; -80 mV; 10^-10 to 10^-4 M

| Structure (SMILES) | pEC50 [1] | pEC50 [2] |
| --- | --- | --- |
| Cc1c[nH]c2ccccc12 [skatole] | 5.86 | 7.06 |
| c1ccc2[nH]ccc2c1 [indole] | 7.06 | 5.04 |

Reference: doi:10.1101/513044v1 (biorxiv, 2019)
